Laboratory results from patent US20070197432A1, “Peptides for preventing, diagnosing and treating animal and/or human leptospirosis” (priority 2002, published 2007).
No end group written: not given here.

Experiments:
PP peptide = test: Immunization of rabbit with noncoupled PP peptide, anti-PP IgG ELISA; assay type: in vivo
Experimental: To test the immunogenicity of the PP peptide alone, immunization with the PP peptide in the rabbit model was carried out, with incomplete Freund's adjuvant being added to each injection.
More precisely, two injections of 400 μg of PP peptide with incomplete Freund's adjuvant (v/v) were administered in a total volume of 2 ml.
The two injections were administered subcutaneously, two weeks apart. The rabbit serum was recovered two weeks after the second injection. The anti-PP antibodies were titered on this serum.
The anti-PP antibodies were titered in the rabbit by the ELISA technique described above, with a biotinylated anti-rabbit antiglobulin (BioAtlantic) at 1/3000 and peroxidase-coupled streptavidin as visualizing agent (RPN1231, Amersham pharmacia biotech)
The results of the anti-PP IgG antibody response, expressed as corrected OD (OD at D28, therefore after the second immunization, minus the OD at D0), of the immunization trial with the PP peptide are given in FIG. 3.

[1] = tested on: Leptospira interrogans sl serovar canicola; test: Trial 1: gerbils immunized with PP-KLH, 10^−2.5 canicola challenge; assay type: in vivo, gerbil; conditions: Experiment 1, survival
Experimental: An immunization/challenge protocol was carried out in order to evaluate the protection that can be provided by the PP peptide (SEQ ID No. 1) coupled to the KLH protein.
This construct is administered subcutaneously without adjuvant, with PBS as a negative control (batch 2).
Batch 1: 10 gerbils, 2 injections of 30 μg of PP-KLH in 300 μl, subcutaneously.
Batch 2: 10 gerbils, 2 injections of PBS in 300 μl.
The two injections in a volume of 300 μl were administered subcutaneously, two weeks apart. A challenge by intraperitoneal injection of 0.5 ml of a canicola culture with a titer of 90 to 100 TU (turbidimetry) diluted to 10^−2.5 was administered two weeks after the second injection. • Antigenic response: Monitoring by ELISA of the immune response of the gerbils against the PP peptide

[2] = tested on: Leptospira interrogans sl serovar canicola; test: Trial 2: gerbils immunized with PP-KLH or PP, 10^−2 canicola challenge; assay type: in vivo, gerbil; design: Mortality rate / Survival rate: unit not given here
Experimental: An immunization/challenge trial was carried out in order to evaluate the protection that can be provided by the PP peptide (SEQ ID No. 1) coupled or not coupled to the KLH protein.
This construct is administered subcutaneously without adjuvant, and PBS is administered by the same route as the negative control (batch 3). • Batch 1: 12 gerbils, 2 injections of 30 μg of PP-KLH in 300 μl. • Batch 2: 12 gerbils, 2 injections of 30 μg of PP in 300 μl. • Batch 3: 15 gerbils, 2 injections of PBS in 300 A1.
The two injections in a volume of 300 μl were administered subcutaneously, two weeks apart. A challenge by intraperitoneal injection of 0.5 ml of a serovar canicola leptospiral culture with a titer of 90 to 100 TU (turbidimetry) diluted to 10^−2 was administered three weeks after the second injection.

KAKPVQKLDDDDDGDDTYKEERHNK [PP peptide, 25 amino acid peptide, fragment aa153-aa177 of the PPL protein of Leptospira interrogans]
serum dilution at which response against the PP peptide can still be detected (PP peptide; 2 s.c. injections of 400 μg with incomplete Freund's adjuvant, D28): ≥ 102 400 | immunogenicity (PP peptide; peptide alone): very immunogenic | p, log-rank test versus control [1]: < 0.07 | Mortality rate ([2]; 10^−2 canicola challenge): 33.3 | Survival rate ([2]; 10^−2 canicola challenge): 66.7 | mortality in the group (dead/number) ([2]; 10^−2 canicola challenge): 4/12 | gerbils at challenge ([2]; 10^−2 canicola challenge, D0): 12 | mortality of gerbils (dead/number) ([2]; 10^−2 canicola challenge, D4): 0/12 | mortality of gerbils (dead/number) ([2]; 10^−2 canicola challenge, D5): 0/12 | mortality of gerbils (dead/number) ([2]; 10^−2 canicola challenge, D6): 0/12 | mortality of gerbils (dead/number) ([2]; 10^−2 canicola challenge, D7): 0/12 | mortality of gerbils (dead/number) ([2]; 10^−2 canicola challenge, D8): 2/12 | mortality of gerbils (dead/number) ([2]; 10^−2 canicola challenge, D9): 2/10 | mortality of gerbils (dead/number) ([2]; 10^−2 canicola challenge, D10): 0/8 | mortality of gerbils (dead/number) ([2]; 10^−2 canicola challenge, D11): 0/8 | mortality of gerbils (dead/number) ([2]; 10^−2 canicola challenge, D12): 0/8 | mortality of gerbils (dead/number) ([2]; 10^−2 canicola challenge, D13): 0/8 | mortality of gerbils (dead/number) ([2]; 10^−2 canicola challenge, D14): 0/8 | mortality of gerbils (dead/number) ([2]; 10^−2 canicola challenge, D15): 0/8 | mortality of gerbils (dead/number) ([2]; 10^−2 canicola challenge, D16): 0/8 | mortality of gerbils (dead/number) ([2]; 10^−2 canicola challenge, D17): 0/8 | mortality of gerbils (dead/number) ([2]; 10^−2 canicola challenge, D28): 0/8 | p, log-rank test versus control ([2]; Experiment 2, survival): < 0.02 | χ^2, log-rank test versus control ([2]; Experiment 2, survival): 5.64 | p, log-rank test versus control ([2]; Experiment 2, survival, listed as PP): <2.10^−2
